In the supplement of paper PMC10307832:

Experiments:
Assay in all cases: relative viability (nuclei count vs DMSO), 5 days (fraction); higher = more cells survive
Halofuginone + Lapatinib = compound: O=C(C[C@H]1NCCC[C@@H]1O)Cn1cnc2cc(Br)c(Cl)cc2c1=O (racemic) [Halofuginone] + CS(=O)(=O)CCNCc1ccc(-c2ccc3ncnc(Nc4ccc(OCc5cccc(F)c5)c(Cl)c4)c3c2)o1 [Lapatinib] (partner 2 µM)
Procedure, shortened: (§1)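 One day after seeding in 1536-well plates, lung cancer cell lines were dosed by pin tool. Dosing was either single-drug or a fixed anchor-drug dose plus five library-drug doses (not always all listed) in √10 steps. After 5 days, nuclei were stained in one fix-and-stain step and counted on 4× images, and relative viability is the nuclei count of treated wells over that of vehicle wells, given as the median of duplicate plates.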

Cediranib + Alpelisib = compound: COc1cc2c(Oc3ccc4[nH]c(C)cc4c3F)ncnc2cc1OCCCN1CCCC1 [Cediranib] + Cc1nc(NC(=O)N2CCC[C@H]2C(N)=O)sc1-c1ccnc(C(C)(C)C(F)(F)F)c1 [Alpelisib] (partner 2 µM)
Procedure, shortened: as §1

Decitabine + Vorinostat = compound: Nc1ncn([C@H]2C[C@H](O)[C@@H](CO)O2)c(=O)n1 [Decitabine] + O=C(CCCCCCC(=O)Nc1ccccc1)NO [Vorinostat] (partner 1 µM)
Procedure, shortened: as §1

Cediranib + OSI-027 = compound: COc1cc2c(Oc3ccc4[nH]c(C)cc4c3F)ncnc2cc1OCCCN1CCCC1 [Cediranib] + COc1cccc2cc(-c3nc([C@H]4CC[C@H](C(=O)O)CC4)n4ncnc(N)c34)[nH]c12 [OSI-027] (partner 0.5 µM)
Procedure, shortened: as §1

Cell Line: LCLC-97TM1
- relative viability (Halofuginone + Lapatinib; first compound 0.001 µM): 0.72
- relative viability (Halofuginone + Lapatinib; first compound 0.003162 µM): 0.881
- relative viability (Halofuginone + Lapatinib; first compound 0.01 µM): 1.02
- relative viability (Halofuginone + Lapatinib; first compound 0.03162 µM): 0.754
- relative viability (Halofuginone + Lapatinib; first compound 0.1 µM): 0.825
- relative viability (Cediranib + Alpelisib; first compound 0.04 µM): 0.235
- relative viability (Cediranib + Alpelisib; first compound 0.4 µM): 0.25
- relative viability (Cediranib + Alpelisib; first compound 1.265 µM): 0.237
- relative viability (Cediranib + Alpelisib; first compound 4 µM): 0.199
- relative viability (Decitabine + Vorinostat; first compound 0.04 µM): 0.273
- relative viability (Decitabine + Vorinostat; first compound 0.1265 µM): 0.159
- relative viability (Decitabine + Vorinostat; first compound 0.4 µM): 0.107
- relative viability (Decitabine + Vorinostat; first compound 1.265 µM): 0.0989
- relative viability (Decitabine + Vorinostat; first compound 4 µM): 0.0784
- relative viability (Cediranib + OSI-027; first compound 0.04 µM): 0.605
- relative viability (Cediranib + OSI-027; first compound 0.1265 µM): 0.332
- relative viability (Cediranib + OSI-027; first compound 0.4 µM): 0.518
- relative viability (Cediranib + OSI-027; first compound 1.265 µM): 0.508
- relative viability (Cediranib + OSI-027; first compound 4 µM): 0.566

Cell Line: NCI-H520
- relative viability (Halofuginone + Lapatinib; first compound 0.001 µM): 0.98
- relative viability (Halofuginone + Lapatinib; first compound 0.003162 µM): 0.811
- relative viability (Halofuginone + Lapatinib; first compound 0.01 µM): 0.96
- relative viability (Halofuginone + Lapatinib; first compound 0.03162 µM): 0.704
- relative viability (Halofuginone + Lapatinib; first compound 0.1 µM): 0.401
- relative viability (Cediranib + Alpelisib; first compound 0.04 µM): 1.05
- relative viability (Cediranib + Alpelisib; first compound 0.4 µM): 0.838
- relative viability (Cediranib + Alpelisib; first compound 1.265 µM): 0.795
- relative viability (Cediranib + Alpelisib; first compound 4 µM): 0.846
- relative viability (Decitabine + Vorinostat; first compound 0.04 µM): 0.622
- relative viability (Decitabine + Vorinostat; first compound 0.1265 µM): 0.627
- relative viability (Decitabine + Vorinostat; first compound 0.4 µM): 0.413
- relative viability (Decitabine + Vorinostat; first compound 1.265 µM): 0.397
- relative viability (Decitabine + Vorinostat; first compound 4 µM): 0.296
- relative viability (Cediranib + OSI-027; first compound 0.04 µM): 0.403
- relative viability (Cediranib + OSI-027; first compound 0.1265 µM): 0.239
- relative viability (Cediranib + OSI-027; first compound 0.4 µM): 0.211
- relative viability (Cediranib + OSI-027; first compound 1.265 µM): 0.202
- relative viability (Cediranib + OSI-027; first compound 4 µM): 0.226

Cell Line: NCI-H1993
- relative viability (Halofuginone + Lapatinib; first compound 0.001 µM): 0.792
- relative viability (Halofuginone + Lapatinib; first compound 0.003162 µM): 0.86
- relative viability (Halofuginone + Lapatinib; first compound 0.01 µM): 0.862
- relative viability (Halofuginone + Lapatinib; first compound 0.03162 µM): 0.789
- relative viability (Halofuginone + Lapatinib; first compound 0.1 µM): 0.823
- relative viability (Cediranib + Alpelisib; first compound 0.04 µM): 0.734
- relative viability (Cediranib + Alpelisib; first compound 0.1265 µM): 0.709
- relative viability (Cediranib + Alpelisib; first compound 0.4 µM): 0.631
- relative viability (Cediranib + Alpelisib; first compound 1.265 µM): 0.677
- relative viability (Cediranib + Alpelisib; first compound 4 µM): 0.791
- relative viability (Decitabine + Vorinostat; first compound 0.04 µM): 0.628
- relative viability (Decitabine + Vorinostat; first compound 0.1265 µM): 0.737
- relative viability (Decitabine + Vorinostat; first compound 0.4 µM): 0.614
- relative viability (Decitabine + Vorinostat; first compound 1.265 µM): 0.399
- relative viability (Decitabine + Vorinostat; first compound 4 µM): 0.487
- relative viability (Cediranib + OSI-027; first compound 0.04 µM): 0.421
- relative viability (Cediranib + OSI-027; first compound 0.1265 µM): 0.579
- relative viability (Cediranib + OSI-027; first compound 0.4 µM): 0.548
- relative viability (Cediranib + OSI-027; first compound 1.265 µM): 0.506
- relative viability (Cediranib + OSI-027; first compound 4 µM): 0.545

Cell Line: NCI-H1437
- relative viability (Halofuginone + Lapatinib; first compound 0.001 µM): 0.835
- relative viability (Halofuginone + Lapatinib; first compound 0.003162 µM): 0.91
- relative viability (Halofuginone + Lapatinib; first compound 0.01 µM): 0.721
- relative viability (Halofuginone + Lapatinib; first compound 0.03162 µM): 0.755
- relative viability (Halofuginone + Lapatinib; first compound 0.1 µM): 0.465
- relative viability (Cediranib + Alpelisib; first compound 0.04 µM): 1.02
- relative viability (Cediranib + Alpelisib; first compound 0.1265 µM): 1.03
- relative viability (Cediranib + Alpelisib; first compound 0.4 µM): 0.971
- relative viability (Cediranib + Alpelisib; first compound 1.265 µM): 0.954
- relative viability (Cediranib + Alpelisib; first compound 4 µM): 1.12
- relative viability (Decitabine + Vorinostat; first compound 0.04 µM): 0.522
- relative viability (Decitabine + Vorinostat; first compound 0.1265 µM): 0.542
- relative viability (Decitabine + Vorinostat; first compound 0.4 µM): 0.444
- relative viability (Decitabine + Vorinostat; first compound 1.265 µM): 0.373
- relative viability (Decitabine + Vorinostat; first compound 4 µM): 0.421
- relative viability (Cediranib + OSI-027; first compound 0.04 µM): 0.841
- relative viability (Cediranib + OSI-027; first compound 0.1265 µM): 0.992
- relative viability (Cediranib + OSI-027; first compound 0.4 µM): 0.796
- relative viability (Cediranib + OSI-027; first compound 1.265 µM): 0.851
- relative viability (Cediranib + OSI-027; first compound 4 µM): 1.02

Cell Line: LC-2-ad
- relative viability (Halofuginone + Lapatinib; first compound 0.001 µM): 0.98
- relative viability (Halofuginone + Lapatinib; first compound 0.003162 µM): 1.02
- relative viability (Halofuginone + Lapatinib; first compound 0.01 µM): 0.93
- relative viability (Halofuginone + Lapatinib; first compound 0.03162 µM): 0.874
- relative viability (Halofuginone + Lapatinib; first compound 0.1 µM): 0.726
- relative viability (Cediranib + Alpelisib; first compound 0.04 µM): 0.994
- relative viability (Cediranib + Alpelisib; first compound 0.1265 µM): 0.97
- relative viability (Cediranib + Alpelisib; first compound 0.4 µM): 0.809
- relative viability (Cediranib + Alpelisib; first compound 1.265 µM): 0.86
- relative viability (Cediranib + Alpelisib; first compound 4 µM): 0.635
- relative viability (Decitabine + Vorinostat; first compound 0.04 µM): 0.642
- relative viability (Decitabine + Vorinostat; first compound 0.1265 µM): 0.635
- relative viability (Decitabine + Vorinostat; first compound 0.4 µM): 0.608
- relative viability (Decitabine + Vorinostat; first compound 1.265 µM): 0.365
- relative viability (Decitabine + Vorinostat; first compound 4 µM): 0.406
- relative viability (Cediranib + OSI-027; first compound 0.04 µM): 0.874
- relative viability (Cediranib + OSI-027; first compound 0.1265 µM): 0.731
- relative viability (Cediranib + OSI-027; first compound 0.4 µM): 0.821
- relative viability (Cediranib + OSI-027; first compound 1.265 µM): 0.762
- relative viability (Cediranib + OSI-027; first compound 4 µM): 0.835

Cell Line: HARA
- relative viability (Halofuginone + Lapatinib; first compound 0.001 µM): 0.705
- relative viability (Halofuginone + Lapatinib; first compound 0.003162 µM): 0.637
- relative viability (Halofuginone + Lapatinib; first compound 0.01 µM): 0.721
- relative viability (Halofuginone + Lapatinib; first compound 0.03162 µM): 0.667
- relative viability (Halofuginone + Lapatinib; first compound 0.1 µM): 0.555
- relative viability (Cediranib + Alpelisib; first compound 0.04 µM): 0.844
- relative viability (Cediranib + Alpelisib; first compound 0.1265 µM): 1.14
- relative viability (Cediranib + Alpelisib; first compound 0.4 µM): 0.837
- relative viability (Cediranib + Alpelisib; first compound 1.265 µM): 0.857
- relative viability (Cediranib + Alpelisib; first compound 4 µM): 1.01
- relative viability (Decitabine + Vorinostat; first compound 0.04 µM): 0.507
- relative viability (Decitabine + Vorinostat; first compound 0.1265 µM): 0.377
- relative viability (Decitabine + Vorinostat; first compound 0.4 µM): 0.345
- relative viability (Decitabine + Vorinostat; first compound 1.265 µM): 0.213
- relative viability (Decitabine + Vorinostat; first compound 4 µM): 0.214
- relative viability (Cediranib + OSI-027; first compound 0.04 µM): 0.367
- relative viability (Cediranib + OSI-027; first compound 0.4 µM): 0.446
- relative viability (Cediranib + OSI-027; first compound 1.265 µM): 0.353
- relative viability (Cediranib + OSI-027; first compound 4 µM): 0.657

Cell Line: NCI-H650
- relative viability (Halofuginone + Lapatinib; first compound 0.001 µM): 1.12
- relative viability (Halofuginone + Lapatinib; first compound 0.003162 µM): 0.48
- relative viability (Halofuginone + Lapatinib; first compound 0.01 µM): 1
- relative viability (Halofuginone + Lapatinib; first compound 0.03162 µM): 0.775
- relative viability (Halofuginone + Lapatinib; first compound 0.1 µM): 0.515
- relative viability (Cediranib + Alpelisib; first compound 0.04 µM): 1.06
- relative viability (Cediranib + Alpelisib; first compound 0.1265 µM): 1.02
- relative viability (Cediranib + Alpelisib; first compound 0.4 µM): 1.05
- relative viability (Cediranib + Alpelisib; first compound 1.265 µM): 1.12
- relative viability (Cediranib + Alpelisib; first compound 4 µM): 1.21
- relative viability (Decitabine + Vorinostat; first compound 0.04 µM): 0.338
- relative viability (Decitabine + Vorinostat; first compound 0.1265 µM): 0.301
- relative viability (Decitabine + Vorinostat; first compound 0.4 µM): 0.204
- relative viability (Decitabine + Vorinostat; first compound 1.265 µM): 0.219
- relative viability (Decitabine + Vorinostat; first compound 4 µM): 0.16
- relative viability (Cediranib + OSI-027; first compound 0.04 µM): 0.485
- relative viability (Cediranib + OSI-027; first compound 0.1265 µM): 0.521
- relative viability (Cediranib + OSI-027; first compound 0.4 µM): 0.508
- relative viability (Cediranib + OSI-027; first compound 1.265 µM): 0.499
- relative viability (Cediranib + OSI-027; first compound 4 µM): 0.542

Cell Line: NCI-H1975
- relative viability (Halofuginone + Lapatinib; first compound 0.001 µM): 0.881
- relative viability (Halofuginone + Lapatinib; first compound 0.003162 µM): 0.873
- relative viability (Halofuginone + Lapatinib; first compound 0.01 µM): 0.766
- relative viability (Halofuginone + Lapatinib; first compound 0.03162 µM): 0.692
- relative viability (Halofuginone + Lapatinib; first compound 0.1 µM): 0.385
- relative viability (Cediranib + Alpelisib; first compound 0.04 µM): 0.716
- relative viability (Cediranib + Alpelisib; first compound 0.1265 µM): 0.621
- relative viability (Cediranib + Alpelisib; first compound 0.4 µM): 0.619
- relative viability (Cediranib + Alpelisib; first compound 1.265 µM): 0.677
- relative viability (Cediranib + Alpelisib; first compound 4 µM): 0.591
- relative viability (Decitabine + Vorinostat; first compound 0.04 µM): 0.508
- relative viability (Decitabine + Vorinostat; first compound 0.1265 µM): 0.412
- relative viability (Decitabine + Vorinostat; first compound 0.4 µM): 0.375
- relative viability (Decitabine + Vorinostat; first compound 1.265 µM): 0.281
- relative viability (Decitabine + Vorinostat; first compound 4 µM): 0.291
- relative viability (Cediranib + OSI-027; first compound 0.04 µM): 0.691
- relative viability (Cediranib + OSI-027; first compound 0.1265 µM): 0.773
- relative viability (Cediranib + OSI-027; first compound 0.4 µM): 0.686
- relative viability (Cediranib + OSI-027; first compound 1.265 µM): 0.638
- relative viability (Cediranib + OSI-027; first compound 4 µM): 0.801
